“And” between values parts separate entries of the source, which are not always exact repeats. Equal values may be shown once. HELM strings list units from the 5' end as sugar, base in round brackets, then linkage (d deoxyribose, r ribose, m 2'-O-methyl, p phosphodiester). Methylation of C is not given here. [moe] = 2'-O-(2-methoxyethyl) (MOE); [cEt] = constrained ethyl (cEt); [sp] = phosphorothioate linkage
Target: HBV
Details: ASO

| Substance | target mRNA inhibition (HepG2, 0.07 µM) | target mRNA inhibition (HepG2, 0.0092593 µM) [%] | target mRNA inhibition (HepG2, 0.0277778 µM) [%] | target mRNA inhibition (HepG2, 0.0833333 µM) [%] | target mRNA inhibition (HepG2, 0.25 µM) [%] |
| --- | --- | --- | --- | --- | --- |
| RNA1{[moe](C)[sp].[cEt](G)[sp].d(A)[sp].d(A)[sp].d(C)[sp].d(C)[sp].d(A)[sp].d(C)[sp].d(T)[sp].d(G)[sp].d(A)[sp].d(A)[sp].[cEt](C)[sp].[moe](A)[sp].[cEt](A)[sp].[moe](A)}$$$$V2.0 | 45% and 49% |  |  |  |  |
| RNA1{[moe](C)[sp].[cEt](G)[sp].d(C)[sp].d(A)[sp].d(G)[sp].d(T)[sp].d(A)[sp].d(T)[sp].d(G)[sp].d(G)[sp].d(A)[sp].d(T)[sp].[cEt](C)[sp].[moe](G)[sp].[cEt](G)[sp].[moe](C)}$$$$V2.0 | 83% and 92% | 22 | 49 | 82 | 91 |
| RNA1{[moe](C)[sp].[cEt](T)[sp].[cEt](A)[sp].d(G)[sp].d(T)[sp].d(A)[sp].d(A)[sp].d(A)[sp].d(C)[sp].d(T)[sp].d(G)[sp].d(A)[sp].d(G)[sp].[cEt](C)[sp].[cEt](C)[sp].[moe](A)}$$$$V2.0 | 76% and 71% | 33 | 49 | 71 | 88 |
| RNA1{[moe](C)[sp].[cEt](T)[sp].[cEt](G)[sp].d(A)[sp].d(G)[sp].d(G)[sp].d(C)[sp].d(C)[sp].d(C)[sp].d(A)[sp].d(C)[sp].d(T)[sp].d(C)[sp].[cEt](C)[sp].[cEt](C)[sp].[moe](A)}$$$$V2.0 | 59% and 84% | 58 | 83 | 90 | 90 |
| RNA1{[moe](C)[sp].[cEt](T)[sp].[cEt](G)[sp].d(G)[sp].d(A)[sp].d(G)[sp].d(C)[sp].d(C)[sp].d(A)[sp].d(C)[sp].d(C)[sp].d(A)[sp].d(G)[sp].[cEt](C)[sp].[cEt](A)[sp].[moe](G)}$$$$V2.0 | 60% and 45% |  |  |  |  |
| RNA1{[moe](C)[sp].[moe](A)[sp].[moe](A)[sp].[moe](T)[sp].d(T)[sp].d(T)[sp].d(A)[sp].d(T)[sp].d(G)[sp].d(C)[sp].d(C)[sp].d(T)[sp].d(A)[sp].[moe](C)[sp].[moe](A)[sp].[moe](G)[sp].[moe](C)}$$$$V2.0 | 34% and 25% |  |  |  |  |
| RNA1{[moe](C)[sp].[moe](A)[sp].[moe](C)[sp].[moe](T)[sp].[moe](A)[sp].[moe](G)[sp].d(T)[sp].d(A)[sp].d(A)[sp].d(A)[sp].d(C)[sp].d(T)[sp].d(G)[sp].d(A)[sp].d(G)[sp].[moe](C)[sp].[moe](C)}$$$$V2.0 | 87% and 72% | 12 | 40 | 42 | 65 |
| RNA1{[moe](C)[sp].[moe](A)[sp].[moe](C)[sp].[moe](T)[sp].d(A)[sp].d(G)[sp].d(T)[sp].d(A)[sp].d(A)[sp].d(A)[sp].d(C)[sp].d(T)[sp].d(G)[sp].[moe](A)[sp].[moe](G)[sp].[moe](C)}$$$$V2.0 | 56% and 50% |  |  |  |  |
| RNA1{[moe](C)[sp].[moe](A)[sp].[moe](G)[sp].[moe](A)[sp].[moe](G)[sp].[moe](G)[sp].d(T)[sp].d(G)[sp].d(A)[sp].d(A)[sp].d(G)[sp].d(C)[sp].d(G)[sp].d(A)[sp].d(A)[sp].[moe](G)[sp].[moe](T)}$$$$V2.0 | 81% and 58% |  |  |  |  |
| RNA1{[moe](C)[sp].[moe](A)[sp].[moe](G)[sp].[moe](A)[sp].d(G)[sp].d(G)[sp].d(T)[sp].d(G)[sp].d(A)[sp].d(A)[sp].d(G)[sp].d(C)[sp].d(G)[sp].[moe](A)[sp].[moe](A)[sp].[moe](G)}$$$$V2.0 | 47% and 50% |  |  |  |  |
| RNA1{[moe](C)[sp].[moe](A)[sp].d(A)[sp].d(T)[sp].d(T)[sp].d(T)[sp].d(A)[sp].d(T)[sp].d(G)[sp].d(C)[sp].d(C)[sp].[moe](T)[sp].[moe](A)[sp].[moe](C)[sp].[moe](A)[sp].[moe](G)}$$$$V2.0 | 27% and 25% |  |  |  |  |
| RNA1{[moe](C)[sp].[moe](A)[sp].d(C)[sp].d(T)[sp].d(A)[sp].d(G)[sp].d(T)[sp].d(A)[sp].d(A)[sp].d(A)[sp].d(C)[sp].[moe](T)[sp].[moe](G)[sp].[moe](A)[sp].[moe](G)[sp].[moe](C)[sp].[moe](C)}$$$$V2.0 | 73% and 66% |  |  |  |  |
| RNA1{[moe](C)[sp].[moe](A)[sp].d(C)[sp].d(T)[sp].d(A)[sp].d(G)[sp].d(T)[sp].d(A)[sp].d(A)[sp].d(A)[sp].d(C)[sp].[moe](T)[sp].[moe](G)[sp].[moe](A)[sp].[moe](G)[sp].[moe](C)}$$$$V2.0 | 52% and 53% |  |  |  |  |
| RNA1{[moe](C)[sp].[moe](A)[sp].d(G)[sp].d(A)[sp].d(G)[sp].d(G)[sp].d(T)[sp].d(G)[sp].d(A)[sp].d(A)[sp].d(G)[sp].[moe](C)[sp].[moe](G)[sp].[moe](A)[sp].[moe](A)[sp].[moe](G)}$$$$V2.0 | 35% and 36% |  |  |  |  |
| RNA1{[moe](C)[sp].[moe](C)[sp].[moe](A)[sp].[moe](C)[sp].[moe](T)[sp].d(G)[sp].d(A)[sp].d(A)[sp].d(C)[sp].d(A)[sp].d(A)[sp].d(A)[sp].d(T)[sp].d(G)[sp].[moe](G)[sp].[moe](C)}$$$$V2.0 | 55% and 44% |  |  |  |  |
| RNA1{[moe](C)[sp].[moe](C)[sp].[moe](A)[sp].[moe](C)[sp].d(T)[sp].d(G)[sp].d(A)[sp].d(A)[sp].d(C)[sp].d(A)[sp].d(A)[sp].d(A)[sp].d(T)[sp].[moe](G)[sp].[moe](G)[sp].[moe](C)}$$$$V2.0 | 57% and 68% |  |  |  |  |
| RNA1{[moe](C)[sp].[moe](C)[sp].[moe](A)[sp].d(A)[sp].d(T)[sp].d(T)[sp].d(T)[sp].d(A)[sp].d(T)[sp].d(G)[sp].d(C)[sp].d(C)[sp].d(T)[sp].[cEt](A)[sp].[cEt](C)[sp].[cEt](A)}$$$$V2.0 | 37% and 34% |  |  |  |  |
| RNA1{[moe](C)[sp].[moe](C)[sp].[moe](G)[sp].[moe](C)[sp].[moe](A)[sp].d(G)[sp].d(T)[sp].d(A)[sp].d(T)[sp].d(G)[sp].d(G)[sp].d(A)[sp].d(T)[sp].d(C)[sp].[moe](G)[sp].[moe](G)[sp].[moe](C)}$$$$V2.0 | 86% and 76% | 5 | 38 | 65 | 86 |
| RNA1{[moe](C)[sp].[moe](C)[sp].[moe](G)[sp].[moe](C)[sp].d(A)[sp].d(G)[sp].d(T)[sp].d(A)[sp].d(T)[sp].d(G)[sp].d(G)[sp].d(A)[sp].d(T)[sp].[moe](C)[sp].[moe](G)[sp].[moe](G)[sp].[moe](C)}$$$$V2.0 | 87% and 74% | 0 | 38 | 69 | 86 |
| RNA1{[moe](C)[sp].[moe](C)[sp].[moe](G)[sp].[moe](C)[sp].d(A)[sp].d(G)[sp].d(T)[sp].d(A)[sp].d(T)[sp].d(G)[sp].d(G)[sp].d(A)[sp].d(T)[sp].[moe](C)[sp].[moe](G)[sp].[moe](G)}$$$$V2.0 | 76% and 71% |  |  |  |  |
| RNA1{[moe](C)[sp].[moe](C)[sp].[moe](G)[sp].d(C)[sp].d(A)[sp].d(G)[sp].d(T)[sp].d(A)[sp].d(T)[sp].d(G)[sp].d(G)[sp].d(A)[sp].[moe](T)[sp].[moe](C)[sp].[moe](G)[sp].[moe](G)}$$$$V2.0 | 75% and 76% | 0 | 23 | 56 | 79 |
| RNA1{[moe](C)[sp].[moe](G)[sp].[moe](A)[sp].d(A)[sp].d(C)[sp].d(C)[sp].d(A)[sp].d(C)[sp].d(T)[sp].d(G)[sp].d(A)[sp].d(A)[sp].[moe](C)[sp].[moe](A)[sp].[moe](A)[sp].[moe](A)}$$$$V2.0 | 48% and 28% |  |  |  |  |
| RNA1{[moe](C)[sp].[moe](G)[sp].[moe](G)[sp].[moe](G)[sp].d(C)[sp].d(A)[sp].d(A)[sp].d(C)[sp].d(A)[sp].d(T)[sp].d(A)[sp].d(C)[sp].d(C)[sp].[moe](T)[sp].[moe](T)[sp].[moe](G)}$$$$V2.0 | 48% and 65% |  |  |  |  |
| RNA1{[moe](C)[sp].[moe](G)[sp].[moe](T)[sp].[moe](G)[sp].[moe](C)[sp].[moe](A)[sp].d(G)[sp].d(A)[sp].d(G)[sp].d(G)[sp].d(T)[sp].d(G)[sp].d(A)[sp].d(A)[sp].d(G)[sp].[moe](C)[sp].[moe](G)}$$$$V2.0 | 81% and 64% |  |  |  |  |
| RNA1{[moe](C)[sp].[moe](G)[sp].[moe](T)[sp].d(G)[sp].d(C)[sp].d(A)[sp].d(G)[sp].d(A)[sp].d(G)[sp].d(G)[sp].d(T)[sp].d(G)[sp].d(A)[sp].[cEt](A)[sp].[cEt](G)[sp].[cEt](C)}$$$$V2.0 | 72% and 60% |  |  |  |  |
| RNA1{[moe](C)[sp].[moe](G)[sp].d(A)[sp].d(A)[sp].d(C)[sp].d(C)[sp].d(A)[sp].d(C)[sp].d(T)[sp].d(G)[sp].d(A)[sp].[moe](A)[sp].[moe](C)[sp].[moe](A)[sp].[moe](A)[sp].[moe](A)[sp].[moe](T)}$$$$V2.0 | 55% and 36% |  |  |  |  |
| RNA1{[moe](C)[sp].[moe](G)[sp].d(A)[sp].d(A)[sp].d(C)[sp].d(C)[sp].d(A)[sp].d(C)[sp].d(T)[sp].d(G)[sp].d(A)[sp].[moe](A)[sp].[moe](C)[sp].[moe](A)[sp].[moe](A)[sp].[moe](A)}$$$$V2.0 | 37% and 23% |  |  |  |  |
| RNA1{[moe](C)[sp].[moe](G)[sp].d(C)[sp].d(A)[sp].d(G)[sp].d(T)[sp].d(A)[sp].d(T)[sp].d(G)[sp].d(G)[sp].d(A)[sp].[moe](T)[sp].[moe](C)[sp].[moe](G)[sp].[moe](G)[sp].[moe](C)}$$$$V2.0 | 76% and 71% | 6 | 31 | 56 | 80 |
| RNA1{[moe](C)[sp].[moe](T)[sp].[moe](A)[sp].[moe](G)[sp].d(T)[sp].d(A)[sp].d(A)[sp].d(A)[sp].d(C)[sp].d(T)[sp].d(G)[sp].d(A)[sp].d(G)[sp].[moe](C)[sp].[moe](C)[sp].[moe](A)}$$$$V2.0 | 66% and 65% |  |  |  |  |

Reference: the OligoGym collection
